According to US6610540B1, “Low oxygen culturing of central nervous system progenitor cells” (California Institute of Technology, priority 1998, dated 2003):

System: E12 mesencephalic precursor cultures
Assay: Dopaminergic / neuronal subtype differentiation of expanded mesencephalic precursor cultures (TH+ cell counts by immunohistochemistry)
Format: cell-based, rat
Details: under both oxygen conditions
From the text: Culture of CNS Stem Cells. Animals were housed and treated following NIH guidelines. Cells dissected from rat embryonic lateral ganglionic eminence (E14) or mesencephalon (E12) were mechanically dissociated, plated on plastic 24-well plates (Costar) or 12 mm glass cover slips (Carolina Biologicals) precoated with polyornithine/fibronectin, and grown in defined medium with bFGF (Studer et al., 1998; Johe et al., 1996). In general, bFGF was withdrawn from the medium after 4-6 days of culture. Clonal assays were carried out in plastic 48-well plates (Costar). In some studies, recombinant human (rh)EPO, rhVEGF165 or recombinant mouse (rm)FGF8b, or their neutralizing antibodies (all from R&D Systems) were added to cultures at the following concentrations: EPO 0.5 U/ml, EPO neutralizing antibody 10 μg/ml, FGF8 250 ng/ml, FGF8b neutralizing antibody 5 μg/ml, VEGF 50 ng/ml, VEGF neutralizing antibody 0.5 μg/ml. […]
Immunohistochemistry. […] Appropriate fluorescence-tagged (Jackson Immunoresearch) or biotinylated (Vector Laboratories) secondary antibodies followed by metal-enhanced DAB reaction (Pierce) were used for visualization.
Cell Counts and Statistical Procedures. Uniform random sampling procedures were used for cell counts and quantified using the fractionator technique (Gundersen, et al., 1988). […] Data are expressed as mean±SEM.

sonic hedgehog
effect on expanded mesencephalic precursors (dopaminergic neuron differentiation): no effect
